{"source": "patent US9192554B2", "about": "“Use of chicoric acid and lactic bacterium in food supplement for regulating skin pigmentation” (Nestec S.A., priority 2010, dated 2015)", "test_system": "B16 murine melanocytes", "test": "Production of melanin by B16 murine melanocyte cell line", "assay_type": "cell-based", "conditions": "72 hours, Kojic acid at 400 μg/mL", "method": "In order to evaluate the potential beneficial effect of ingredients towards skin de- or pro-pigmentation we used 2D culture of murine melanocytes (B16) and we performed 2 tests: 1-assessment of melanin production and 2-assessment of tyrosinase production. 1. The Cell Culture Conditions. • B16 cells were cultured in DMEM 1 g/L glucose without phenol red supplemented with 10% foetal calf serum, in a humidified chamber at 37° C. and containing 5% CO2. 2. The Production of Melanin by B16 Murine Melanocyte Cell Line. • Cells were incubated with the selected ingredients or the test references (Kojic acid at 400 μg/mL) for 72 hours, in the presence or absence of NDP-MSH an analog of MSH. The total quantity of melanin (extracellular and intracellular) was evaluated by measurement of the optical density at 405 nm of each sample against melanin standards in presence or in absence of NDP-MSH. Chicoric acid has been pre-treated with La-1 [(spray dried culture Lactobacillus Johnsonii CNCM I-1225, 1.19E10 cfu/g) for 24 hours in a thermomixer at 40° C., under shaking conditions. After incubation, samples have been centrifuged 5 minutes at 3000 g. After this treatment the probiotic as such is not present anymore in the sample however the presence of its metabolites can't be excluded.", "data": [{"compound": "O=c1cc(CO)occ1O", "note": "[Kojic acid]", "values": [{"measurement": "Melanin content (effect in words)", "result": "decrease in melanin content"}]}]}
